Read-outs that look alike come from different tables or passages of the source.
Tested on: Sprague-Dawley rats
Assay: Serum thyroid hormones (FT3, FT4, TSH)
Type: in vivo, Rattus norvegicus
Details: for CED, Serum TSH / CED-L, Serum TSH / Serum TSH, CED / Serum TSH, CED-L: half min value added to zeros; for Emax: Rattus norvegicus; for Serum free T3 (S-fT3), CED / Serum free T3 (S-fT3), CED-L / Serum free T4 (S-fT4), CED / Serum free T4 (S-fT4), CED-L / Serum TSH, CED / Serum TSH, CED-L: total dose based; for TSH / fT3 / fT4: group mean
Description: Serum free triiodothyronine (FT3), free thyroxine (FT4) and thyroid stimulating hormone (TSH) were measured by Elecsys 2010 immunochemistry analyzer using Roche FT3, FT4 and TSH reagents (all from Roche Diagnostics GmbH, Mannheim, Germany). The test principle is electrochemiluminescence immunoassay (ECLIA).
Data were also analyzed using the BMD method, which is based on dose-response modeling of the full data set using a nested family of exponential and Hill models. The analyses were done on data of males and females combined, using sex as a covariate. […] In that case, different Critical Effect Doses (CEDs) and CEDs at the lowest bound of the confidence interval (CED-L) were generated for each sex. If no difference between sexes is detected, a CED and CED-Ls for the combined data is generated. However, this was also done if the curve fits are close, and separate analyses for males and females were then performed manually. CEDs and CED-Ls were calculated at the predefined Critical Effect Size (CES) of 5% (EFSA standard) or 10%.

[1] = F, CES 5%, model E2, adipose tissue concentration based
[2] = F, CES 10%, model E2, adipose tissue concentration based
[3] = M, CES 5%, model E4, adipose tissue concentration based
[4] = M, CES 10%, model E4, adipose tissue concentration based
[5] = females, adipose tissue concentration based
[6] = females, total dose 10 mg/kg bw
[7] = females, total dose 30 mg/kg bw

## Clc1cc(Cl)c(-c2cc(Cl)c(Cl)c(Cl)c2Cl)cc1Cl [PCB 180, 2,2′,3′,4,4′,5,5′-heptachlorobiphenyl]
[1]
  CED, Serum free T3 (S-fT3): 2280 µg/g lipid
  CED, Serum free T4 (S-fT4): 821 µg/g lipid
  CED-L, Serum free T3 (S-fT3): 1496 µg/g lipid
  CED-L, Serum free T4 (S-fT4): 683 µg/g lipid
  CED, Serum TSH: 206 µg/g lipid
  CED-L, Serum TSH: 126 µg/g lipid
[2]
  CED, Serum free T3 (S-fT3): 4680 µg/g lipid
  CED, Serum free T4 (S-fT4): 1690 µg/g lipid
  CED-L, Serum free T3 (S-fT3): 3072 µg/g lipid
  CED-L, Serum free T4 (S-fT4): 1402 µg/g lipid
  CED, Serum TSH: 402 µg/g lipid
  CED-L, Serum TSH: 246 µg/g lipid
[3]
  CED, Serum free T3 (S-fT3): 428 µg/g lipid
  CED, Serum free T4 (S-fT4): 158 µg/g lipid
  CED-L, Serum free T3 (S-fT3): 196 µg/g lipid
  CED-L, Serum free T4 (S-fT4): 117 µg/g lipid
  CED, Serum TSH: 0.29 µg/g lipid
  CED-L, Serum TSH: 0.04 µg/g lipid
[4]
  CED, Serum free T3 (S-fT3): 976 µg/g lipid
  CED, Serum free T4 (S-fT4): 328 µg/g lipid
  CED-L, Serum free T3 (S-fT3): 449 µg/g lipid
  CED-L, Serum free T4 (S-fT4): 243 µg/g lipid
  CED, Serum TSH: 0.58 µg/g lipid
  CED-L, Serum TSH: 0.09 µg/g lipid
F, model E2, controls vs high dose according to the fitted model, read-out: Maximum response, Serum free T3 (S-fT3)
  Emax: -22.5%
females, controls vs high dose, fitted model, read-out: Serum free T3 (S-fT3), Maximum response
  Emax: -21.8%
males, controls vs high dose, fitted model, read-out: Serum free T3 (S-fT3), Maximum response
  Emax: -26%
read-out: Maximum response, Serum free T4 (S-fT4), F, model E2, controls vs high dose according to the fitted model
  Emax: -50.7%
read-out: Maximum response, Serum free T4 (S-fT4), M, model E4, controls vs high dose according to the fitted model
  Emax: -67.2%
read-out: Serum free T4 (S-fT4), Maximum response, females, controls vs high dose, fitted model
  Emax: -49.4%
read-out: Serum free T4 (S-fT4), Maximum response, males, controls vs high dose, fitted model
  Emax: -66.7%
Model E4, controls vs high dose according to the fitted model, read-out: Maximum response, Serum free T3 (S-fT3)
  Emax: -25%
females
  fT3, Dose response: D, T
  fT4, Dose response: D, T
females, CES 5%
  Serum free T3 (S-fT3), CED: 354 mg/kg bw
  Serum free T3 (S-fT3), CED-L: 233 mg/kg bw
  Serum free T4 (S-fT4), CED: 128 mg/kg bw
  Serum free T4 (S-fT4), CED-L: 106.6 mg/kg bw
  Serum TSH, CED: 32.5 mg/kg bw
  Serum TSH, CED-L: 19.9 mg/kg bw
females, CES 10%
  Serum free T3 (S-fT3), CED: 727 mg/kg bw
  Serum free T3 (S-fT3), CED-L: 479 mg/kg bw
  Serum free T4 (S-fT4), CED: 263 mg/kg bw
  Serum free T4 (S-fT4), CED-L: 219 mg/kg bw
  Serum TSH, CED: 63.5 mg/kg bw
  Serum TSH, CED-L: 38.8 mg/kg bw
[5]
  Serum free T3, CED: 2280 µg/g lipid
  Serum free T4, CED: 821 µg/g lipid
females, total dose 3 mg/kg bw
  TSH: 0.047 µIU/ml
  fT3: 5.72 pmol/L
  fT4: 22.2 pmol/L
[6]
  TSH: 0.000136 µIU/ml
  fT3: 5.10 pmol/L
  fT4: 19.1 pmol/L
[7]
  TSH: 0.00543 µIU/ml
  fT3: 6.17 pmol/L
